Assay results taken from patent US20230038201A1, “TRANSFER FILM, PHOTOSENSITIVE MATERIAL, PATTERN FORMING METHOD, MANUFACTURING METHOD OF CIRCUIT BOARD, AND MANUFACTURING METHOD OF TOUCH PANEL” (FUJIFILM Corporation, priority 2020, published 2023).
Like-named read-outs stand apart in the source and are kept apart here.

Assays:
[1] = Measurement of pKa of compound β in ground state (acid titration, 0.1 N HCl, methanol/water); settings: for pKa: methanol/water mixture
[2] = Measurement of ε365 and ε365/ε313 of compound β (molar absorption coefficients in acetonitrile); assay type: physicochemical; design: key to ε365 of Compound β: molar absorption coefficient at 365 nm in (cm·mol/L)^−1; settings: for ε365/ε313: compound β
From the text: (Measurement and Evaluation of ε365 and ε365/ε313)
A molar absorption coefficient ((cm·mol/L)^−1, “ε365”) of the compound β at 365 nm and a molar absorption coefficient ((cm·mol/L)^−1, “ε313”) of the compound β at 313 nm were obtained, and a value (ε365/ε313) obtained by divided ε365 by ε313 was obtained.
The ε365 and ε313 of the compound β are molar absorption coefficients measured by dissolving the compound β in acetonitrile. In a case where the compound β was insoluble in acetonitrile, a solvent for dissolving the compound β may be appropriately changed.

[3] = pKa of Compound β in ground state
[4] = pKa of Compound β in ground state, compound β alone
[5] = pKa of Compound β in ground state, compound β, ground state
[6] = pKa of Compound β in ground state, ground state
[7] = molar absorption coefficient at 365 nm
[8] = molar absorption coefficient at 365 nm in acetonitrile
[9] = molar absorption coefficient at 365 nm, compound β alone
[10] = molar absorption coefficient at 365 nm, in acetonitrile
[11] = pKa in ground state, compound β, pKa of the conjugate acid for nitrogen-containing aromatic compounds
[12] = compound β, pKa of the conjugate acid for nitrogen-containing aromatic compounds

| Compound | pKa [1, 3] | pKa [1, 4] | pKa [1, 5] | pKa [1, 6] | ε365 of Compound β [2] | ε365 of Compound β ([2]; compound β alone) | ε365 of Compound β [2, 7] | ε365 of Compound β [2, 8] | ε365 of Compound β [2, 9] | ε365 of Compound β [2, 10] | pKa [1, 11] | also measured |
| --- | --- | --- | --- | --- | --- | --- | --- | --- | --- | --- | --- | --- |
| Cc1cc(C)c2c(C)cc(C)nc2c1 [2,4,5,7-Tetramethylquinoline] | 6.23 | 6.23 | 6.23 | 6.23 | <10 | <10 | <10 | <10 (cm·mol/L)^−1 | <10 | <10 (cm·mol/L)^−1 | – | – |
| CC(=O)c1ccncc1 [4-Acetylpyridine] | – | – | – | – | – | – | – | – | – | – | 3.1 | ε365/ε313 ([2]; in acetonitrile): <1 |
| O=C(c1ccccc1)c1ccncc1 [4-Benzoylpyridine] | – | – | – | – | – | – | – | – | – | – | 2.9 | ε365/ε313 ([2]; in acetonitrile): <1 |
| c1cnc2c(c1)CCCC2 [5,6,7,8-Tetrahydroquinoline] | – | – | – | – | – | – | – | – | – | – | 5.9 | ε365/ε313 ([2]; in acetonitrile): <1 |
| CCCCc1ncc(C)c2ccccc12 [Example 1-n-Butyl-4-methylisoquinoline, 1-n-Butyl-4-methylisoquinoline] | 5.9 | 5.9 | 5.9 | 5.9 | <10 | <10 | <10 | <10 (cm·mol/L)^−1 | <10 | <10 (cm·mol/L)^−1 | – | – |
| CCCCc1nccc2ccccc12 [Example 1-n-Butylisoquinoline, 1-n-Butylisoquinoline] | 5.27 | 5.27 | 5.27 | 5.27 | <10 | <10 | <10 | <10 (cm·mol/L)^−1 | <10 | <10 (cm·mol/L)^−1 | – | – |
| Clc1ccccn1 [Example 2-Chloropyridine, 2-Chloropyridine] | – | – | – | – | <10 | <10 | <10 | <10 (cm·mol/L)^−1 | <10 | <10 (cm·mol/L)^−1 | – | pKa of Compound β in ground state [1]: 0.70; pKa of Compound β in ground state ([1]; compound β alone): 0.70; pKa of Compound β in ground state ([1]; compound β, ground state): 0.70; pKa of Compound β in ground state ([1]; ground state): 0.70 |
| COc1cc(C)nc2ccccc12 [Example 2-Methyl-4-methoxyquinoline, 2-Methyl-4-methoxyquinoline] | 6.51 | 6.51 | 6.51 | 6.51 | <10 | <10 | <10 | <10 (cm·mol/L)^−1 | <10 | <10 (cm·mol/L)^−1 | – | – |
| Nc1ccncc1 [Example 4-Aminopyridine, 4-Aminopyridine] | 9.2 | 9.2 | 9.2 | 9.2 | <100 | <100 | <100 | <100 (cm·mol/L)^−1 | <100 | <100 (cm·mol/L)^−1 | – | – |
| Cc1c2ccccc2nc2ccccc12 [Example 9-Methylacridine, 9-Methylacridine] | 5.4 | 5.4 | 5.4 | 5.4 | 6300 | 6300 | 6300 | 6300 (cm·mol/L)^−1 | 6300 | 6300 (cm·mol/L)^−1 | – | – |
| c1ccc(-c2c3ccccc3nc3ccccc23)cc1 [Example 9-Phenylacridine, 9-Phenylacridine] | 4.04 | 4.04 | 4.04 | 4.04 | – | – | – | – | >1000 | – | – | – |
| c1ccc2cnccc2c1 [Example B1, isoquinoline] | 4.69 | 4.69 | 4.69 | 4.69 | <10 | <10 | <10 | <10 (cm·mol/L)^−1 | <10 | <10 (cm·mol/L)^−1 | 4.7 | pKa in ground state [1, 12]: 4.69; ε365/ε313 ([2]; in acetonitrile): <1 |
| c1ccc2ncccc2c1 [Example B2, quinoline] | 4.15 | 4.15 | 4.15 | 4.15 | <10 | <10 | <10 | <10 (cm·mol/L)^−1 | <10 | <10 (cm·mol/L)^−1 | 4.2 | pKa in ground state [1, 12]: 4.15; ε365/ε313 ([2]; in acetonitrile): <1 |
| c1ccc2nc3ccccc3cc2c1 [Example B3, acridine] | 4.67 | 4.67 | 4.67 | 4.67 | 4900 | 4900 | 4900 | 4900 (cm·mol/L)^−1 | 4900 | 4900 (cm·mol/L)^−1 | 4.7 | pKa in ground state [1, 12]: 4.67; ε365/ε313 ([2]; in acetonitrile): >3 |
| CCCCc1nccc2ccccc12 [Example B4, 1-n-butylisoquinoline] | – | – | – | – | – | – | – | – | – | – | 5.27 | – |
| CCCCc1ncc(C)c2ccccc12 [Example B5, 1-n-butyl-4-methylisoquinoline] | – | – | – | – | – | – | – | – | – | – | 5.9 | – |
| Cc1nccc2ccccc12 [Example B6, 1-Me-isoquinoline] | – | – | – | – | <10 | <10 | <10 | <10 (cm·mol/L)^−1 | <10 | <10 (cm·mol/L)^−1 | – | pKa of Compound β in ground state [1]: 5.31; pKa of Compound β in ground state ([1]; compound β alone): 5.31; pKa of Compound β in ground state ([1]; compound β, ground state): 5.31; pKa in ground state [1, 12]: 5.31; pKa of Compound β in ground state ([1]; ground state): 5.31 |
| Cc1cc(C)c2c(C)cc(C)nc2c1 [Example B7, 2,4,5,7-tetramethylquinoline] | – | – | – | – | – | – | – | – | – | – | 6.23 | – |
| COc1cc(C)nc2ccccc12 [Example B8, 2-methyl-4-methoxyquinoline] | – | – | – | – | – | – | – | – | – | – | 6.51 | – |
| Cc1c2ccccc2nc2ccccc12 [Example B9, 9-methylacridine] | – | – | – | – | – | – | – | – | – | – | 5.4 | – |
| c1ccc(-c2c3ccccc3nc3ccccc23)cc1 [Example B10, 9-phenylacridine] | – | – | – | – | – | – | – | – | – | – | 4.04 | – |
| c1ccncc1 [Example B11, pyridine] | – | – | – | – | <10 | <10 | <10 | <10 (cm·mol/L)^−1 | <10 | <10 (cm·mol/L)^−1 | – | – |
| Cc1cc(C)c2ccccc2n1 [Example B12, 2,4-dimethylquinoline] | 5.67 | 5.67 | 5.67 | 5.67 | <10 | – | <10 | <10 (cm·mol/L)^−1 | <10 | <10 (cm·mol/L)^−1 | 5.67 | – |
| Nc1ccncc1 [Example B13, 4-aminopyridine] | – | – | – | – | – | – | – | – | – | – | – | pKa (physchem): 9.2 |
| Clc1ccccn1 [Example B14, 2-chloropyridine] | – | – | – | – | – | – | – | – | – | – | – | pKa [1]: 0.7 |
| c1ccc2c(c1)cnc1ccccc12 [Phenanthridine] | – | – | – | – | – | – | – | – | – | – | 3.8 | ε365/ε313 ([2]; in acetonitrile): <1 |
